Measurements from patent US9072295B2, “Herbicidal compositions” (Syngenta Participations AG, priority 2011, dated 2015).

What was measured:
[1] = tested on: maize varieties (LEXXOR, PACTOL, CLAXXON, GARLAND and SUNDANCE); experiment: Greenhouse study: herbicidal damage to maize after pre-emergence PPGO inhibiting herbicides, with or without safener seed treatment; format: in vivo; settings: seed treatment 1 g/kg seed; 8 DAA
Experimental: A greenhouse study is performed to evaluate the safener response of various maize varieties to various PPGO inhibiting herbicides. […] Control seed is also included in the test which contains no safener seed treatment. Herbicide treatments are applied pre-emergence, at the indicated application rates, using a laboratory tracksprayer with a TeeJet 11002VS nozzle. The sprayer is set to deliver an output of 200 L/ha by applying an air pressure of 2 bar. The treated and control seeds are then planted in the treated sandy loam soil contained in 10 cm deep plastic trays and watered from the top of the trays as needed.

[2] = tested on: Winter wheat; experiment: Field test: herbicidal damage to winter wheat after pre-emergence fomesafen, with or without safener A seed treatment; settings: seed treatment 100 g/100 kg seed; fomesafen up to 560 g/ha
Experimental: Winter wheat seed is treated with safener A (1-[4-(N-2-methoxybenzoylsulfamoyl)phenyl]-3-methylurea) at 100 g safener/100 kg of seed. Control seed is also included which contains no safener seed treatment. The wheat seed is then planted in a field as a randomized block design including four replications.

Structure (SMILES): CNC(=O)Nc1ccc(S(=O)(=O)NC(=O)c2ccccc2OC)cc1 [Safener A, 1-[4-(N-2-methoxybenzoylsulfamoyl)phenyl]-3-methylurea]
- Safening against sulfentrazone in maize [1]: particularly good safening
- Safening of the various PPGO inhibiting herbicides tested in maize [1]: highly effective safening
- Safening of fomesafen in winter wheat [2]: highly effective safening
